From ChEMBL document CHEMBL5120893, “A Neuropeptide Y/F-like Polypeptide Derived from the Transcriptome of Turbinaria peltata Suppresses LPS-Induced Astrocytic Inflammation” (J Nat Prod, 2022)
Activity calls are given as the source filed them. Residues, ends and D or L forms follow the SMILES beside them.

Legend:
[1] = system: C8-D1A; assay: Antiinflammatory activity against mouse C8D1A cells assessed as inhibition of LPS-induced NO production at 3 uM measured after 24 hrs in presence of Y1R antagonist BIIE-0246 by Griess method; assay type: functional, cell-based
[2] = system: C8-D1A; assay: Antiinflammatory activity against mouse C8D1A cells assessed as inhibition of LPS-induced iNOS production by Western blotting analysis; assay type: functional, cell-based; settings: dose 0.75-3 µM, DDE = dose-dependent effect
[3] = biological target: Inhibitor of nuclear factor kappa-B kinase subunit alpha/beta (Mus musculus) (UniProt Q60680+O88351); assay: Inhibition of IKKalpha/beta phosphorylation at Ser176/180 in LPS-induced mouse C8D1A cells at 0.75 to 3 uM pretreated for 4 hrs followed by LPS stimulation measured after 24 hrs by Western blotting analysis; assay type: cell-based; settings: dose 0.75-3 µM
[4] = system: C8-D1A; assay: Cytotoxicity against mouse C8D1A cells assessed as cell viability at 0.75 to 50 uM after 24 hrs by MTT assay; assay type: toxicity, cell-based; settings: dose 0.75-50 µM
[5] = system: C8-D1A; assay: Antiinflammatory activity against mouse C8D1A cells assessed as inhibition of LPS-induced IL-1beta mRNA expression at 0.75 to 3 uM pretreated for 4 hrs followed by LPS stimulation measured after 24 hrs by real time PCR analysis; assay type: functional, cell-based; settings: dose 0.75-3 µM, time 28.0 hrs
[6] = system: C8-D1A; assay: Antiinflammatory activity against mouse C8D1A cells assessed as inhibition of LPS-induced IL-6 mRNA expression at 0.75 to 3 uM pretreated for 4 hrs followed by LPS stimulation measured after 24 hrs by real time PCR analysis; assay type: functional, cell-based; settings: dose 0.75-3 µM, time 28.0 hrs
[7] = system: C8-D1A; assay: Effect on LPS-induced inflammasome activation in mouse C8D1A cells assessed as reduction in caspase 1 protein level at 0.75 to 3 uM by Western blotting analysis; assay type: functional, cell-based; settings: dose 0.75-3 µM
[8] = system: C8-D1A; assay: Antiinflammatory activity against mouse C8D1A cells assessed as inhibition of LPS-induced iNOS expression at 3 uM in presence of Y1R antagonist BIIE-0246 by Western blotting analysis; assay type: functional, cell-based
[9] = system: C8-D1A; assay: Effect on LPS-induced inflammasome activation in mouse C8D1A cells assessed as reduction in NLRP3 protein level at 0.75 to 3 uM by Western blotting analysis; assay type: functional, cell-based; settings: dose 0.75-3 µM
[10] = system: C8-D1A; assay: Inhibition of LPS-induced mouse C8D1A cell viability loss assessed as restoration of cell viability at 0.75 to 6 uM after 24 hrs by MTT assay; assay type: functional, cell-based; settings: dose 0.75-6 µM
[11] = system: C8-D1A; assay: Antiinflammatory activity against mouse C8D1A cells assessed as inhibition of LPS-induced iNOS expression at 3 uM by Western blotting analysis; assay type: functional, cell-based
[12] = system: C8D1A; assay: Inhibition of NFkappaB p65 phosphorylation at […] in LPS-induced mouse C8D1A cells at 0.75 to 3 uM pretreated for 4 hrs followed by LPS stimulation measured after 24 hrs by Western blotting analysis; assay type: cell-based; settings: dose 0.75-3 µM
[13] = system: C8-D1A; assay: Antiinflammatory activity against mouse C8D1A cells assessed as inhibition of LPS-induced TNFalpha production at 0.75 to 3 uM pretreated for 4 hrs followed by LPS stimulation measured after 24 hrs by ELISA; assay type: functional, cell-based; settings: dose 0.75-3 µM, time 28.0 hrs
[14] = system: C8-D1A; assay: Antiinflammatory activity against mouse C8D1A cells assessed as inhibition of LPS-induced IL-1beta production at 0.75 to 3 uM pretreated for 4 hrs followed by LPS stimulation measured after 24 hrs by ELISA; assay type: functional, cell-based; settings: dose 0.75-3 µM, time 28.0 hrs
[15] = system: C8-D1A; assay: Antiinflammatory activity against mouse C8D1A cells assessed as inhibition of LPS-induced TNFalpha mRNA expression at 0.75 to 3 uM pretreated for 4 hrs followed by LPS stimulation measured after 24 hrs by real time PCR analysis; assay type: functional, cell-based; settings: dose 0.75-3 µM, time 28.0 hrs
[16] = system: C8-D1A; assay: Antiinflammatory activity against mouse C8D1A cells assessed as inhibition of LPS-induced IL-6 production at 0.75 to 3 uM pretreated for 4 hrs followed by LPS stimulation measured after 24 hrs by ELISA; assay type: functional, cell-based; settings: dose 0.75-3 µM, time 28.0 hrs
[17] = system: C8-D1A; assay: Antiinflammatory activity against mouse C8D1A cells assessed as inhibition of LPS-induced NO production measured after 24 hrs by Griess method; assay type: functional, cell-based; settings: dose 0.75-6 µM, DDE = dose-dependent effect
[18] = biological target: T1, Inhibitor of nuclear factor kappa-B kinase subunit beta (Mus musculus) (UniProt O88351); assay: Inhibition of IkappaBalpha phosphorylation at […] in LPS-induced mouse C8D1A cells at 0.75 to 3 uM pretreated for 4 hrs followed by LPS stimulation measured after 24 hrs by Western blotting analysis; assay type: cell-based; settings: dose 0.75-3 µM
T1 sequence (whole entry): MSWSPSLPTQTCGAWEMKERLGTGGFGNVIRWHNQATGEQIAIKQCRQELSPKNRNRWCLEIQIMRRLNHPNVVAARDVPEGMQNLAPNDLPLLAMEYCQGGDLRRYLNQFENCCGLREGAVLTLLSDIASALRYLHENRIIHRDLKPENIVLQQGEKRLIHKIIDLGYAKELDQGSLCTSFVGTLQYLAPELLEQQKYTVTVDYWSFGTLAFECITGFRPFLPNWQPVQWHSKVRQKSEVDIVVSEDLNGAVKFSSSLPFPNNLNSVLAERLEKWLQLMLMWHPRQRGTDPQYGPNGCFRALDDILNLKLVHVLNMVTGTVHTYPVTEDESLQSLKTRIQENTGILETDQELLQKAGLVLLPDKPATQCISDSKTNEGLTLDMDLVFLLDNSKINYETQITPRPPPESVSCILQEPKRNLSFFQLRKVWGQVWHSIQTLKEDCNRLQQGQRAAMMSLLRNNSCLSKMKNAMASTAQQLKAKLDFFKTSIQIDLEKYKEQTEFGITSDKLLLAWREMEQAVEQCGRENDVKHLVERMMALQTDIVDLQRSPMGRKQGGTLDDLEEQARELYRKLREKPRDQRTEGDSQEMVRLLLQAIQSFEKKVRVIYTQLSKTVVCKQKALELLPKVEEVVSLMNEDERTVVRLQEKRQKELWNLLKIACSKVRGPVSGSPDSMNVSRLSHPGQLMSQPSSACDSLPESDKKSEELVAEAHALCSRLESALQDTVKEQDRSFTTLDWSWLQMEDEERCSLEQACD

[19] = system: C8-D1A; assay: Antiinflammatory activity against mouse C8D1A cells assessed as inhibition of LPS-induced ROS production measured after 24 hrs by fluorescent CM-H2DCFDA based flow cytometry; assay type: functional, cell-based; settings: dose 0.75-3 µM, DDE = dose-dependent effect
[20] = system: C8-D1A; assay: Antiinflammatory activity against mouse C8D1A cells assessed as inhibition of LPS-induced GFAP production at 0.75 to 3 uM pretreated for 4 hrs followed by LPS stimulation measured after 24 hrs by DMI-8 microscopy; assay type: functional, cell-based; settings: dose 0.75-3 µM, time 28.0 hrs
[21] = system: C8-D1A; assay: Antiinflammatory activity against mouse C8D1A cells assessed as inhibition of LPS-induced NO production at 3 uM measured after 24 hrs by Griess method; assay type: functional, cell-based

CC[C@H](C)[C@H](NC(=O)[C@@H](NC(=O)[C@@H](NC(=O)[C@H](Cc1ccc(O)cc1)NC(=O)[C@H](Cc1ccc(O)cc1)NC(=O)CNC(=O)[C@H](C)NC(=O)[C@H](CC(C)C)NC(=O)[C@H](CC(=O)O)NC(=O)[C@H](CO)NC(=O)[C@H](CC(C)C)NC(=O)[C@H](Cc1ccc(O)cc1)NC(=O)[C@H](C)NC(=O)[C@H](CC(N)=O)NC(=O)[C@H](CC(C)C)NC(=O)[C@H](CCC(=O)O)NC(=O)[C@H](C)NC(=O)[C@H](CCSC)NC(=O)[C@H](CO)NC(=O)[C@H](CCCCN)NC(=O)[C@H](Cc1ccccc1)NC(=O)[C@H](CO)NC(=O)[C@H](CCC(=O)O)NC(=O)[C@@H]1CCCN1C(=O)[C@H](CCCNC(=N)N)NC(=O)[C@H](CCCCN)NC(=O)[C@@H]1CCCN1C(=O)[C@@H]1CCCN1C(=O)CNC(=O)CNC(=O)[C@@H](N)C(C)C)[C@@H](C)O)C(C)C)C(=O)NCC(=O)N[C@@H](CCCNC(=N)N)C(=O)N1CCC[C@H]1C(=O)N[C@@H](CCCNC(=N)N)C(=O)N[C@@H](Cc1ccccc1)C(=O)O (H-VGGPPKRPESFKSMAELNAYLSDLAGYYTVIGRPRF-OH)
Non-Toxic: Activity [4]
active: inhibition [1] | inhibition [2] Dde | inhibition [3] | inhibition [5] | inhibition [6] | inhibition [7] | inhibition [8] | inhibition [9] | Activity [10] | inhibition [11] | inhibition [12] | inhibition [13] | inhibition [14] | inhibition [15] | inhibition [16] | inhibition [17] Dde | inhibition [18] | inhibition [19] Dde | inhibition [20] | inhibition [21]
